System: short-term antigen-specific T cell lines generated from PBMCs
Test: Interferon-γ ELISpot assay on short-term antigen-specific T cell lines; on ELISpot: Immungenicity of the peptide shown by IFN-gamma ELISPOT analysis: key: +: ELISPOT: Immungenicity of the peptide shown by IFN-gamma ELISPOT analysis; +*: *highlights data from published resources; *highlights data from published resources
Type: cell-based, human
Conditions: for rates of immunoactivation in PBMC samples, CD8 T cell responses and/or numbers of HPV16 positive cell lines presenting the peptide as HLA-complexes: comparison among the peptides in Table 1

106 (RCMSCCRSSR; Human papillomavirus 16) [compound 106]
ELISpot: Immungenicity of the peptide shown by IFN-gamma ELISPOT analysis (HLA restriction B07): +

123 (FYSKISEY; Human papillomavirus 16) [compound 123]
ELISpot: Immungenicity of the peptide shown by IFN-gamma ELISPOT analysis (HLA restriction B15): +

81 (RAHYNIVTF; Human papillomavirus 16) [compound 81]
ELISpot: Immungenicity of the peptide shown by IFN-gamma ELISPOT analysis (HLA restriction B15): + | rates of immunoactivation in PBMC samples, CD8 T cell responses and/or numbers of HPV16 positive cell lines presenting the peptide as HLA-complexes: highest rates of immunoactivation in PBMC samples, to induce the strongest CD8 T cell responses, and/or shown to be presented as HLA-complexes by the highest numbers of HPV16 positive cell lines

142 (CPDEKQRHL; Human papillomavirus 16) [compound 142]
ELISpot: Immungenicity of the peptide shown by IFN-gamma ELISPOT analysis (HLA restriction B07): +

47 (KLPQLCTELQT; Human papillomavirus 16) [compound 47]
ELISpot: Immungenicity of the peptide shown by IFN-gamma ELISPOT analysis (HLA restriction A02): +

138 (HYNIVTFC; Human papillomavirus 16) [compound 138]
ELISpot: Immungenicity of the peptide shown by IFN-gamma ELISPOT analysis (HLA restriction A24): +

12 (TLHEYMLDL; Human papillomavirus 16) [compound 12]
ELISpot: Immungenicity of the peptide shown by IFN-gamma ELISPOT analysis (HLA restriction B15): +

68 (YAVCDKCLKFY; Human papillomavirus 16) [compound 68]
ELISpot: Immungenicity of the peptide shown by IFN-gamma ELISPOT analysis (HLA restriction A11): +

145 (KISEYRHY; Human papillomavirus 16) [compound 145]
ELISpot: Immungenicity of the peptide shown by IFN-gamma ELISPOT analysis (HLA restriction B15): +

118 (LLRREVYDFAF; Human papillomavirus 16) [compound 118]
ELISpot: Immungenicity of the peptide shown by IFN-gamma ELISPOT analysis (HLA restriction B15): +

82 (EYRHYCYSL; Human papillomavirus 16) [compound 82]
rates of immunoactivation in PBMC samples, CD8 T cell responses and/or numbers of HPV16 positive cell lines presenting the peptide as HLA-complexes: highest rates of immunoactivation in PBMC samples, to induce the strongest CD8 T cell responses, and/or shown to be presented as HLA-complexes by the highest numbers of HPV16 positive cell lines

122 (CLKFYSKISEY; Human papillomavirus 16) [compound 122]
ELISpot: Immungenicity of the peptide shown by IFN-gamma ELISPOT analysis (HLA restriction B15): +

111 (QQLLRREVY; Human papillomavirus 16) [compound 111]
ELISpot: Immungenicity of the peptide shown by IFN-gamma ELISPOT analysis (HLA restriction B15): +

10 (ETTDLYCY; Human papillomavirus 16) [compound 10]
ELISpot: Immungenicity of the peptide shown by IFN-gamma ELISPOT analysis (HLA restriction A01): +

70 (KCLKFYSKI; Human papillomavirus 16) [compound 70]
ELISpot: Immungenicity of the peptide shown by IFN-gamma ELISPOT analysis (HLA restriction A03): +

11 (TIHDIILECV; Human papillomavirus 16) [compound 11]
rates of immunoactivation in PBMC samples, CD8 T cell responses and/or numbers of HPV16 positive cell lines presenting the peptide as HLA-complexes: highest rates of immunoactivation in PBMC samples, to induce the strongest CD8 T cell responses, and/or shown to be presented as HLA-complexes by the highest numbers of HPV16 positive cell lines

13 (YMLDLQPET; Human papillomavirus 16) [compound 13]
rates of immunoactivation in PBMC samples, CD8 T cell responses and/or numbers of HPV16 positive cell lines presenting the peptide as HLA-complexes: highest rates of immunoactivation in PBMC samples, to induce the strongest CD8 T cell responses, and/or shown to be presented as HLA-complexes by the highest numbers of HPV16 positive cell lines

148 (FYSKISEY; Human papillomavirus 16) [compound 148]
ELISpot: Immungenicity of the peptide shown by IFN-gamma ELISPOT analysis (HLA restriction B15): +

95 (DKKQRFHN; Human papillomavirus 16) [compound 95]
ELISpot: Immungenicity of the peptide shown by IFN-gamma ELISPOT analysis (HLA restriction A24): +

134 (IHEIILECVY; Human papillomavirus 16) [compound 134]
ELISpot: Immungenicity of the peptide shown by IFN-gamma ELISPOT analysis (HLA restriction A01): +

132 (TTDLYCYEQL; Human papillomavirus 16) [compound 132]
ELISpot: Immungenicity of the peptide shown by IFN-gamma ELISPOT analysis (HLA restriction A01): +

130 (KQRFHNIRGRW; Human papillomavirus 16) [compound 130]
ELISpot: Immungenicity of the peptide shown by IFN-gamma ELISPOT analysis (HLA restriction B15): +

— patent US20260240976A1, “T[…] VACCINES BASED ON VALIDATED TARGET EPITOPES” (Deutsches Krebsforschungszentrum Stiftung des öffentlichen …, priority 2023, published 2026)
